Reference: paper PMC4183595, “Study on the Main Components Interaction from Flos Lonicerae and Fructus Forsythiae and Their Dissolution In Vitro and Intestinal Absorption in Rats” (PLoS ONE, 2014)
Read-outs that look alike come from different tables or passages of the source.

Key:
Caco-2 cells = assay: In vitro Caco-2 monolayer model, apical to basolateral transport (P app); type: in vitro ADME, human; conditions: for P app in product C group, % compared to that in product A group / P app in product C group, % compared with that in product B group: Caco-2 monolayer, HBSS pH 6.0, apical to basolateral; for absorption into Caco-2 cells: dipsacoside B, macranthoidin B in product C or A group, arctiin in product C or B group
Procedure: Caco-2 cells were cultured in high glucose DMEM with 10% fetal bovine serum, 1% nonessential amino acids. Cells were cultured in a humidified atmosphere of 5% CO2 at 37°C. After reaching 80% confluens, Caco-2 cells were harvested with 0.05% trypsin-EDTA solution and seeded on top of CC inserts in 6-well plates, which has a surface area of 4.2 cm^2, at a density of 1.0×10^5 cells/cm^2. The protocols for cell culture in Transwell inserts were similar to those described previously.
Hank’s balanced salt solution (HBSS) was used as the transport buffer for the transport study in Caco-2 cells monolayer model. It was prepared by dissolving 9.5 grams of commercial available HBSS powder in 1000 mL water.
Cell culture experiments were described previously. Briefly, after culture medium was aspirated, the cell monolayers were washed three times with blank HBSS. […] The monolayers were incubated with the blank HBSS for 1 h with 37°C. Thereafter the incubation medium was aspirated. Afterwards, a solution containing the compound was loaded onto the apical side. The amounts of transported compound were measured as a function of time. […] The samples were taken at 0, 1, 2, 3 and 4 h after incubation. At the end of the transport experiment, integrity of the monolayer was monitored by TEER value.

[1] = Rat in vivo pharmacokinetics study after oral administration of product A, B or C; set-up: species or system Male Sprague-Dawley (SD) rats; AUC 0→t in product C group, increased to % compared to that in product A or B groups: concentration or dose not given beside the values; conditions: for AUC(0-inf) / MRT / Tmax / half-life / Cmax / AUC(0-t): male, Sprague-Dawley, rat, plasma; for AUC(0-inf) / MRT / Tmax / half-life / Cmax: po, 10 mL·kg^−1, rats; for AUC(0-inf) / MRT / Tmax / half-life / AUC(0-t): 10 mL·kg^−1; for half-life: read-out: T 1/2z; for Cmax: mean±SD; for bioavailability in product C group compared with that in product A group / bioavailability in product C group compared with that in product B group / AUC(0-t) / AUC 0→t in product C group, increased to % compared to that in product A or B groups / AUC 0→t in product C group compared with product A or B group: rats; for bioavailability in product C group compared with that in product A group / bioavailability in product C group compared with that in product B group / AUC 0→t in product C group, increased to % compared to that in product A or B groups / AUC 0→t in product C group compared with product A or B group: oral; for AUC(0-t): oral product C group; for AUC 0→t in product C group, increased to % compared to that in product A or B groups: product C versus product A or B; for AUC 0→t in product C group compared with product A or B group: same dosages administrated
Procedure: Product A (extract mixed with FLJ extract and water, (1∶1, v / v )), product B (extract mixed with FF extract and water, (1∶1, v / v )) and product C (extract mixed with FLJ and FF extracts, (1∶1, v / v )) were given to oral administration to rats, respectively.
Male SD rats (∼250 g) were kept in an environmentally controlled breeding room (temperature: 20±2°C, relative humidity: 60±5%) for 1 week. […] The rats were randomly divided into three groups with no less than six rats in each group to receive various administrations at a single oral dose (10 mL·kg^−1) by gastric gavage. […] Subsequently, plasma was prepared by centrifugation at 1,816×g, 4°C for 7 min, and immediately analyzed or stored at −70°C for further analysis.
The main pharmacokinetic parameters including the peak plasma concentration (C max), the time to C max (T max), the AUC from 0 to infinity (AUC 0–∞), the AUC form 0 to time (AUC 0–t), mean residence time (MRT), and terminal elimination half-life (T 1/2z) were calculated by the non-compartmental analysis of plasma concentration vs. time data using the “DAS 2.1.1” software (Mathematical Pharmacology Professional Committee of China, Shanghai, China).

[2] = single oral dose 10 mL·kg^−1 of product A (FLJ extract and water 1:1)
[3] = single oral dose 10 mL·kg^−1 of product B (FF extract and water 1:1)
[4] = single oral dose 10 mL·kg^−1 of product C (FLJ and FF extracts 1:1)

P app in product C group, % compared to that in product A group (Caco-2 cells) [%]	AUC(0-inf) ([1]; oral product A) [ng·h/mL]	MRT ([1]; oral product A) [h]	Tmax ([1]; oral product A) [h]	half-life ([1]; oral product A) [h]	Tmax ([1]; oral product B) [h]	AUC(0-inf) ([1]; oral product C) [ng·h/mL]	MRT ([1]; oral product C) [h]	Tmax ([1]; oral product C) [h]	half-life ([1]; oral product C) [h]	Cmax [1, 2] [ng/mL]	Cmax [1, 4] [ng/mL]	Compound	P app in product C group, % compared with that in product B group (Caco-2 cells) [%]	AUC(0-inf) ([1]; oral product B) [ng·h/mL]	MRT ([1]; oral product B) [h]	half-life ([1]; oral product B) [h]	Cmax [1, 3] [ng/mL]	bioavailability in product C group compared with that in product A group [1]	bioavailability in product C group compared with that in product B group [1]	also measured
125	144	8.22	0.167	4.62 ± 0.877	0.167	52.4	7.12	0.167	4.67 ± 1.05	15.6 ± 4.39	8.02 ± 0.493	O=c1c(O)c(-c2ccc(O)c(O)c2)oc2cc(O)cc(O)c12 [Quercetin]	256	65	7	5.27 ± 0.93	12.6 ± 2.23	opposite	opposite	
174	2.97		0.167	6.38 ± 0.22		5		0.167	9.65 ± 1.43	1.26 ± 0.655	2.48 ± 1.34	O=c1cc(-c2ccc(O)c(O)c2)oc2cc(O[C@@H]3O[C@H](CO)[C@@H](O)[C@H](O)[C@H]3O)cc(O)c12 [Luteoloside]								AUC(0-t) [1]: 4.76 ng·h/mL; AUC 0→t in product C group, increased to % compared to that in product A or B groups [1]: 137%
131	4.32	8.15	0.167	7.67 ± 0.263		6.26	11.3	0.167	11.6 ± 1.72	0.441 ± 0.166	0.551 ± 0.207	O=c1c(O[C@@H]2O[C@H](CO)[C@@H](O)[C@H](O)[C@H]2O)c(-c2ccc(O)cc2)oc2cc(O)cc(O)c12 [Astragalin]								AUC(0-t) [1]: 4.17 ng·h/mL; AUC 0→t in product C group, increased to % compared to that in product A or B groups [1]: 145%
293	240	10.8	0.233	10 ± 1.27		28.6	7.72	0.25	6.85 ± 1.13	5.09 ± 2.46	2.3 ± 1	O=c1c(-c2ccc(O)cc2)coc2cc(O)cc(O)c12 [Genistein]								AUC 0→t in product C group compared with product A or B group [1]: lower significantly
165	0.63		0.267	8.03 ± 0.305		0.822		0.333	9.2 ± 0.455	0.055 ± 0.0154	0.0753 ± 0.0285	O=c1c(-c2ccc(O)cc2)coc2cc(O[C@@H]3O[C@H](CO)[C@@H](O)[C@H](O)[C@H]3O)cc(O)c12 [Genistin]								AUC(0-t) [1]: 0.548 ng·h/mL; AUC 0→t in product C group, increased to % compared to that in product A or B groups [1]: 131%
275	1190	6.65	0.167	6 ± 1.1	0.167	737	6.28	0.167	6.53 ± 1.02	181 ± 17.6	98.1 ± 16.2	O=C(O)/C=C/c1ccc(O)c(O)c1 [Caffeic acid]	247	683	5.57	5.53 ± 0.893	91.1 ± 6.74	significantly lower	no significant difference	
												C[C@@H]1O[C@@H](O[C@H]2[C@H](O[C@H]3CC[C@@]4(C)[C@@H](CC[C@]5(C)[C@@H]4CC=C4[C@@H]6CC(C)(C)CC[C@]6(C(=O)O[C@@H]6O[C@H](CO[C@@H]7O[C@H](CO)[C@@H](O)[C@H](O)[C@H]7O)[C@@H](O)[C@H](O)[C@H]6O)CC[C@]45C)[C@]3(C)CO)OC[C@H](O)[C@@H]2O)[C@H](O)[C@H](O)[C@H]1O [dipsacoside B]								absorption into Caco-2 cells (Caco-2 cells): might not be absorbed well
301		3.98	0.35	3.82 ± 0.28	0.3		7.35	0.167	5.5 ± 1.27			O=C(O)[C@]1(O)C[C@@H](O)[C@@H](O)[C@H](O)C1 [Quinic acid]	24.0		4.5	4.1 ± 0.628	358 ± 157	no significant difference	higher significantly	
240	88.3	5.78	0.167	7.05 ± 0.943		46.9	4.67	0.167	4.42 ± 0.262	44.9 ± 19.8	19.5 ± 5.43	O=c1cc(-c2ccc(O)c(O)c2)oc2cc(O)cc(O)c12 [Luteolin]								AUC 0→t in product C group compared with product A or B group [1]: lower significantly
												COc1ccc(C[C@H]2COC(=O)[C@@H]2Cc2ccc(O[C@@H]3O[C@H](CO)[C@@H](O)[C@H](O)[C@H]3O)c(OC)c2)cc1OC [arctiin]								absorption into Caco-2 cells (Caco-2 cells): might not be absorbed well

Compound	P app in product C group, % compared to that in product A group (Caco-2 cells) [%]	AUC(0-inf) ([1]; oral product A) [ng·h/mL]	MRT ([1]; oral product A) [h]	Tmax ([1]; oral product A) [h]	half-life ([1]; oral product A) [h]	Tmax ([1]; oral product B) [h]	AUC(0-inf) ([1]; oral product C) [ng·h/mL]	MRT ([1]; oral product C) [h]	Tmax ([1]; oral product C) [h]	half-life ([1]; oral product C) [h]	Cmax [1, 2] [ng/mL]	Cmax [1, 4] [ng/mL]	P app in product C group, % compared with that in product B group (Caco-2 cells) [%]	AUC(0-inf) ([1]; oral product B) [ng·h/mL]	MRT ([1]; oral product B) [h]	half-life ([1]; oral product B) [h]	Cmax [1, 3] [ng/mL]	bioavailability in product C group compared with that in product A group [1]	bioavailability in product C group compared with that in product B group [1]	also measured
O=c1c(O[C@@H]2O[C@H](CO)[C@@H](O)[C@H](O)[C@H]2O)c(-c2ccc(O)c(O)c2)oc2cc(O)cc(O)c12 [Isoquercitrin]	169	2.63	9.28	0.167	7.27 ± 0.438	0.333	5.51	9.25	0.267	7.58 ± 0.868	0.504 ± 0.351	1 ± 0.3	234	3.25	8.3	7.85 ± 0.515	0.619 ± 0.212	no significantly different	no significantly different	
C[C@@H]1O[C@@H](OC[C@H]2O[C@@H](Oc3c(-c4ccc(O)c(O)c4)oc4cc(O)cc(O)c4c3=O)[C@H](O)[C@@H](O)[C@@H]2O)[C@H](O)[C@H](O)[C@H]1O [Rutin]	213	10.3	5.02	0.167	7.93 ± 0.837		22.8	4.88	0.167	7.55 ± 0.613	4.08 ± 1.99	19.8 ± 3.93	210	30.5	4.35	8.17 ± 1.55	14.6 ± 1.65	significantly higher	no significant difference	
O=c1c(O[C@@H]2O[C@H](CO)[C@H](O)[C@H](O)[C@H]2O)c(-c2ccc(O)c(O)c2)oc2cc(O)cc(O)c12 [Hyperoside]	129	9.89	7.27	0.167	6.83 ± 1.63		24.6	6.45	0.167	7.05 ± 0.688	5.25 ± 0.859	22.1 ± 1.9	195	10.4	6.82	6.68 ± 0.487	9.68 ± 4.39	significantly higher	significantly higher	
